Entries after “also recorded” stand apart in the source; their conditions may differ. Bridge positions count the residues as written; N and C are the ends. Ends that are not written are not given here.
B1: OP-1 (osteogenic protein-1), mature human OP-1 (ligand)
chain: CKKHELYVSFRDLGWQDWIIAPEGYAAYYCEGECAFPLNSYMNATNHAIVQTLVHFINPETVPKPCCAPTQLNAISVLYFDDSSNVILKKYRNMVVRACGCH
modifications: radio-iodinated (^125I) when used as tracer; unlabeled when used as competitor or in the bioassay
B2: Peptide F1-1 (peptide)
peptide: CELYVSFRDLGWQDWIIAPEGYAAYC
modifications: disulfide 1-26

What was measured:
[1] = test system: OP-1 receptor-enriched plasma membrane fraction of ROS cells; test: Radioligand receptor assay: displacement of 125I-labeled OP-1 from ROS cell plasma membranes; assay type: binding, rat; details: for effect on binding of 125I-labeled OP-1 to the receptor: Example 3; for ability to displace 125I-labeled soluble OP-1 from ROS cell membranes: Example 2, FIGS. 10A and 10B
Procedure: In a second series of experiments, the ability of unlabeled soluble OP-1 and unlabeled peptides F1-2, F2-2, F2-3, H-n2 and H-c2 to displace ^125I labeled soluble OP-1 from ROS cell membranes was measured. The activities of peptides F2-2 and F2-3 relative to soluble OP-1 are shown in FIG. 10A, and the activities of peptides Fi-2, H-n2 and H-c2 relative to soluble OP-1 are shown in FIG. 10B. OP-1 receptor-enriched plasma membranes of ROS cells were incubated for 20 hrs at 4° C. with ^125I-labeled soluble OP-1 and unlabeled peptide. Receptor bound material was separated from unbound material by centrifugation at 39,500×g. The resulting pellet was harvested and washed with 50 mM HEPES buffer, pH 7.4 containing 5 mM MgCl2 and 1 mM CaCl2 Radioactivity remaining in the pellet was determined by means of a gamma counter.
(§1) Assay of peptides: The receptor-binding activities of OP-1 synthetic peptides were determined by a radio-ligand receptor assay using ^125I-labeled OP-1 as ligand, and an OP-1 receptor-enriched plasma membrane fraction of ROS cells. The assay is based on competition between radiolabeled OP-1 and unlabeled OP-1 or peptide for binding to membrane-bound receptor. A well characterized ROS cell based in vitro bio-assay was used to examine the effects of OP-1 peptides on basal as well as OP-1 induced cellular alkaline phosphatase activity.
i. Radio-receptor Assay: The receptor-binding activities of various OP-1 synthetic peptides can be determined by an equilibrium displacement binding isotherm assay using ^125I-labeled OP-1 as ligand and OP-1 receptor-enriched plasma membrane fraction of ROS cells. Highly purified OP-1 can be radioiodinated to a specific activity of 70-78 μCi/ug by a modified procedure of lactoperoxidase method. The percent bindability of radioiodinated OP-1 to excess receptor is 30-37%. Plasma membranes enriched with OP-1 receptors from ROS cells can be isolated as is known in the art. […] In a typical assay, fixed amounts of ^125I-labeled sol. OP-1 (˜80,000 cpm) are incubated with fixed amount of receptor-enriched plasma membrane fraction in the presence (5 μg, for non-specific binding) or absence of excess unlabeled OP-1 (for total binding). Displacement curves are generated with increasing concentrations of OP-1 peptide (0.032-50 μM) or OP-1 standard preparation (5-2000 ng). The assay incubations are carried out in a reaction volume of 300 μl with shaking for 22 hrs. at 4° C. Separation of bound and free ^125I-labeled OP-1 is by centrifugation (39,500×g, 30 minutes). The supernatants are aspirated and pellets are washed before counting in a gamma counter (Packard Instr., Downers Grove, Ill.). The concentration of OP-1 peptide required to give 50% inhibition of total specific binding of ^125I-labeled OP-1 (ED50) is calculated from competitive data.

[2] = test system: ROS cells; test: ROS cell based alkaline phosphatase bioassay; set-up: species or system rat; details: for effect on OP-1 induced cell responsiveness (agonist/antagonist behaviour): peptide together with OP-1; for IC50: peptide together with OP-1 (1.33 nM), read-out: peptide concentration giving 50% inhibition of cellular responsiveness to OP-1; for effect on basal cell responsiveness (alkaline phosphatase activity): no OP-1
Procedure: In a first series of experiments, increasing concentrations of peptides F2-2 (FIG. 9A), F2-3 (FIG. 9B), Hn-2 (FIG. 9C) and Hc-2 (FIG. 9D) were added to ROS cells either alone (open bars) or in combination with 40 ng/ml soluble OP-1 (filled bars) and their effect on alkaline phosphatase activity measured. Soluble OP-1 is the form of OP-1 in which the pro-domain is still attached to the mature portion of OP-1 (see WO 94/03600). A basal alkaline phosphatase activity is shown by the line and represents the alkaline phosphatase activity of cells incubated in the absence of both soluble OP-1 and peptide.
as §1
i. ROS Cell Based Alkaline Phosphatase Assay: OP-1 synthetic peptides that bind OP-1 receptors are further analyzed by in vitro bioassay. This allows defining the role of OP-1 peptides at the receptor-binding site. Some of the OP-1 peptides that effectively interact with receptors could inhibit OP-1 induced target cell responsiveness, thereby acting as functional antagonists. Alternatively, they may mimic OP-1 functions inducing alkaline phosphatase activity in ROS cells. Creative BioMolecules has developed and fully validated ROS cell in vitro assay for OP-1. An assay procedure as described earlier is essentially followed to determine the biological activities of OP-1 peptides. In a typical experiment, rat Osteosarcoma (17/2.8) cells are plated in 96 well plates (3.0×10^4 cells/well) and incubated overnight at 37° C. in 5-6% CO2 incubator. Next day, the plates are examined to make sure that cells are healthy & confluent. Cells are treated with increasing concentrations of OP-1 standard (1-10,000 ng/ml) or OP-1 synthetic peptides (0.02-200 μM) alone or with OP-1 standard prepared in medium containing 1% FBS and incubated for 2 days at 37° C. in 5-6% CO2 incubator. The cellular content of alkaline phosphatase activity is determined by the method of Reddi and Huggins. Enzyme estimations are routinely carried out in 96 well plates. Following removal of culture medium, cells are washed with pre-warmed PBS (150 μl) and further incubated in 100 ul of pre-warmed 1% Triton X-100 for 30 minutes at 37 C. Plates are centrifuged for 10 minutes at full speed, and recovered samples (each 15 μl) are assayed for enzyme activity by adding 90 ul p-nitrophenyl phosphate (Sigma) as a substrate in 0.05 M glycine-NaOH buffer, pH 9.3 and incubating for 20 minutes at 37° C. The reaction is stopped by adding 75 μl of 0.2 N NaOH/well and absorbance at 405/490 nm is measured on a Dynatech MR 700 plate reader. Results are expressed as concentration of peptide inhibitor (with antagonist activity) required to give 50% inhibition of maximum response to OP-1 standard. On the other hand, the activities of peptides that stimulate cell responsiveness (with agonist activity) are expressed relative to OP-1 standard. FIG. 23 illustrates the dose-related effects of OP-1 preparations on stimulation of alkaline phosphatase activity as determined in ROS cell based in vitro assay.

[3] = target: OP-1 receptor of ROS cells (OP-1 receptor-enriched plasma membrane fraction of ROS cells) (rat); test: equilibrium binding of ^125I-OP-1 to OP-1 receptor-enriched ROS cell plasma membranes
[4] = target: OP-1 receptor of ROS cells (OP-1 receptor-enriched plasma membrane fraction of ROS cells) (rat); test: binding of ^125I-OP-1 to excess receptor (ROS cell plasma membranes)
[5] = target: OP-1 receptor of ROS cells (OP-1 receptor-enriched plasma membrane fraction of ROS cells) (rat)

Row | Molecule | effect on binding of 125I-labeled OP-1 to the receptor [1] | effect on OP-1 induced cell responsiveness (agonist/antagonist behaviour) ([2]; Example 3) | IC50 ([2]; Example 3) | ability to displace 125I-labeled soluble OP-1 from ROS cell membranes [1] | effect on basal cell responsiveness (alkaline phosphatase activity) ([2]; Example 3, peptide alone) | further results
1 | F1-1: SEQ ID No. 5; cyclized peptide covering the complete finger 1 region of OP-1 (CELYVSFRDLGWQDWIIAPEGYAAYC; cyclized; listed as Homo sapiens) | interfered | antagonists | 20 µM | – | – | peptide concentrations effective to inhibit basal cellular responsiveness ([2]; Example 3, peptide alone): 52 to 260 µM
2 | F1-2: SEQ ID No. 6; 15-residue finger 1 loop region peptide cyclized at the ends (CFRDLGWQDWIIAPC; cyclized; listed as Homo sapiens) | relatively weak activity | relatively weak antagonist | 10 µM | little or no ability to displace | weakly inhibiting | peptide concentration required to inhibit binding of 125I-labeled OP-1 to the receptor ([1]; Example 3, FIG. 14): 179 µM; effect on binding of 125I-labeled OP-1 to the receptor ([1]; listed as Fi-2): interfered; effect on OP-1 induced cell responsiveness (agonist/antagonist behaviour) ([2]; Example 3, listed as Fi-2): antagonists
3 | F2-1: SEQ ID No. 16; covers the entire finger 2 region of OP-1, cyclized close to the knot region (CLNAISVLYFDDSSNVILKKYRNMVVRC; disulfide 1-28 (inferred); listed as Homo sapiens) | – | effectively inhibited | 8 µM | – | effectively inhibited | –
4 | F2-2: SEQ ID No. 17; 9 residues at the tip of finger 2 including 2 Asp residues, ends cyclized (CYFDDSSNVIC; cyclized; listed as Homo sapiens) | effectively competed | weak agonist; also recorded: potentiating the cell responsiveness to OP-1 | – | cannot completely displace | – | behaviour in the alkaline phosphatase assay (agonist/antagonist) ([2]; Example 2, alone or with 40 ng/ml soluble OP-1): weak OP-1 agonists; effect on responsiveness to OP-1 ([2]; Example 3, at higher peptide concentrations (above 0.6-60 μM)): inhibited the responsiveness to OP-1; potentiation of OP-1 induced cell responsiveness ([2]; Example 3, peptide 0.6-60 μM, FIG. 16): 20%; peptide concentrations at which OP-1 induced responsiveness is potentiated ([2]; Example 3, with OP-1): 0.6 to 60 µM; increase of alkaline phosphatase activity relative to soluble OP-1 alone ([2]; peptide about 60 μM with 40 ng/ml soluble OP-1, FIG. 9A): about 20%; effect on basal alkaline phosphatase level ([2]; peptide alone, about 60 μM, Example 2, FIG. 9A): double
5 | F2-2c: SEQ ID No. 18; control cyclized peptide, 9 residues of F2-2 in reverse order (CIVNSSDDFYC; disulfide 1-11 (inferred); listed as Homo sapiens) [reference compound] | inactive | no effect | – | – | no effect | –
6 | H-1: SEQ ID No. 11; covers the whole Heel region, cyclized near the knot region (CAFPLNSYMNATNHAIVQTLVHFINPETVPKC; disulfide 1-32 (inferred); listed as Homo sapiens) | interfered | weak antagonist; also recorded: antagonists | – | – | effective only at very high concentrations | peptide concentrations required to inhibit the OP-1 induced cell response ([2]; Example 3, with OP-1): 44 to 220 µM
7 | H-C2: SEQ ID No. 13; 7 residues (plus Cys) in the loop on the C-terminal end of the Heel helix (CCFINPETVCC; listed as Homo sapiens) | interfered | antagonists | 5 µM | little or no ability to displace | inhibiting the basal | effect on binding of 125I-labeled OP-1 to the receptor ([1]; peptide at 8 μM, FIG. 14): potentiated; overall judgement of activity (lead peptides) ([2]; Example 3 summary, antagonistic (H-C2) and modulating (F2-3) activity): highly active; peptide concentration at which the activity of soluble OP-1 is antagonized ([2]; with 40 ng/ml soluble OP-1, FIG. 9D): greater than 5 μM
8 | H-N2: SEQ ID No. 12; 11 residues (plus Cys) in the loop on the N-terminal end of the Heel helix (CLNSYMNATNHAC; listed as Homo sapiens) | failed to inhibit | not effective | – | little or no ability to displace | not effective | effect on alkaline phosphatase activity ([2]; either alone or in combination with soluble OP-1, FIG. 9C): little or no effect
9 | B1 | – | – | – | – | – | Ka [3]: 4.38e+09 M⁻¹; average OP-1 binding capacity (pmol/mg protein) [3]: 3.6; percent bindability to excess receptor [4]: 30 to 37%
10 | B2 | – | – | – | – | – | IC50 (peptide concentration giving 50% inhibition of cellular responsiveness to OP-1), ROS cell alkaline phosphatase [5]: 20 µM

From patent US20030185792A1, “Morphogen analogs of bone morphogenic proteins” (Curis, Inc., priority 1996, published 2003)
